Data on 2 compounds can be found in US20250177338A1 (URIACH ITALY S.R.L., priority 2022, published 2025).

One data set deals with NSC-34/IFRS1 co-culture. As to the kind of experiment: Mitochondrial metabolism at Peripheral Nervous System level. The settings on record: added to NAC 12 mM, VitD 100 nM, G 5 mM. In kind it is cell-based, rat. The procedure: In order to recreate a peripheral nervous system in vitro, a myelinating co-culture system was used with an NSC-34 motor neuron-like cell line and an IFRS1 adult rat Schwann cell line according to a protocol reported in the literature. IFRS1 cells were seeded on 100-mm plastic discs (Greiner Bio-One GmbH, Frickenhausen, Germany, 664-160-013) at an approximate density of 2×10^4/cm^2 and maintained in DMEM containing 5% FBS, recombinant human eregulin-β (EMD Millipore, Billerica, MA, USA) 20 ng/mL, forskolin (Sigma, St. Louis, MO, USA) 5 μM and antifungal antibiotic solution (penicillin 100 U/mL, streptomycin 100 μg/mL and amphotericin 250 ng/mL; Sigma). NSC-34 cells were seeded on 100-mm plastic discs at an approximate density of 1×10^4/cm^2 and maintained in DMEM containing antibiotic antifungal solution and 5% FBS. At semi-confluence, cells were detached from the discs using 0.05% trypsin/EDTA 0.53 mM solution, suspended in DMEM/F12 Ham containing 5% FBS in a 50 mL polypropylene conical tube, and reseeded on Aclar fluorocarbon coverslips coated with poly-L-lysine/laminine, 12-well culture plates coated with type I collagen, and 2-well glass chamber slides coated with type I collagen at an approximate density of 2×10^3/cm^2. […]

The next data set concerns GTL-16 cell line. The settings on record: pre-digested model, 2, 3, 4 and 6 hours; NAC 12 mM, VitD 100 nM, G 5 mM.
A further data set has as its system ERK/MAPK. The settings on record: liver level; NAC 12 mM, VitD 100 nM, G 5 mM, LA 50 μM. The procedure: Human epithelial cells (HepG2) were purchased from ATCC, and cultured in DMEM supplemented with 10% FBS, L-glutamine 2 mM and 1% penicillin-streptomycin, at 37° C., 5% CO2. […] ERK/MAPK activity was measured by InstantOne™ ELISA (Thermo Fisher) on cell lysates following the manufacturer's instructions. The strips were measured by a spectrometer (VICTOR X4, multiwell plate reader) at 450 nm. Results were expressed as mean absorbance (%) compared with control.

The next data set has as its system HepG2. In words: Hepatic absorption test. The settings on record: NAC 12 mM, VitD 100 nM, G 5 mM, LA 50 μM. In kind it is in vitro ADME, Human. The procedure:
Human epithelial cells (HepG2) were purchased from ATCC, and cultured in DMEM supplemented with 10% FBS, L-glutamine 2 mM and 1% penicillin-streptomycin, at 37° C., 5% CO2.

Procedure for GTL-16 cell line: The GTL-16 cell line, donated by the Laboratory of Histology, University of Eastern Piedmont (Italy), is a clonal line derived from a poorly differentiated gastric carcinoma cell line widely used as a model of gastric epithelial cells. Cells were cultured in Dulbecco's Modified Eagle medium (DMEM, Merck Life Science, Rome, Italy) supplemented with 10% fetal bovine serum (Fetal Bovine Serum, FBS), 1% penicillin-streptomycin, in an incubator at 37° C., 5% CO2. 1×10^4 cells were used to explore cell viability by MTT.
At the end of stimulation, cells were incubated with 1% MTT dye for 2 h at 37° C. in an incubator, 5% CO2 and 95% humidity, and then purple formazan crystals were dissolved in an equal volume of MTT solubilization solution.

As for Vitamin D [VitD], the mitochondrial activity entry in the data set on NSC-34/IFRS1 co-culture was “contributes to increased mitochondrial activity”.

Regarding `N[C@@H](CCC(=O)N[C@@H](CS)C(=O)NCC(=O)O)C(=O)O` [glutathione, (2S)-2-amino-5-[[(2R)-1-(carboxymethylamino)-1-oxo-3-sulfanylpropan-2-yl]amino]-5-oxopentanoic acid], the cell viability entry with GTL-16 cell line was “contributes to increased cell viability”. Besides, in the data set with ERK/MAPK, the ERK activity result is given as “further enhances the conservation of these biological activities”. In addition, the hepatic absorption entry in the data set on HepG2 is “further increases hepatic absorption”.
